ChEMBL document CHEMBL3885861, “Open TG-GATES”

Species on record: Rattus norvegicus
Experiment: Open TG-GATES - Regimen: Daily Repeat
Type: toxicity, organism-based, Sprague-Dawley
Parameters: regimen Daily Repeat, gender Male, age 6 weeks
Settings: in vivo, po, 100 mg/kg, route gavage, dose level Middle; for APTT / Bas / Eos / Fbg / Hb / Ht / Lym / MCH / MCHC / MCV / Mono / Neu / PT / Plat / RBC / Ret / WBC: tissue Blood; for KIDNEY_L / KIDNEY_R / KIDNEY_TOTAL: tissue Kidney; for LIVER: tissue Liver; for A/G / ALP / ALT / AST / BUN / CRE / Ca / Cl / DBIL / GLC / IP / K / LDH / Na / PL / RALB / TBIL / TC / TG / TP / gamma-GTP: tissue Plasma

## CCc1oc2ccccc2c1C(=O)c1cc(I)c(O)c(I)c1 [BENZIODARONE]
72 h, time 3 day
  TERMINAL_BW: 247.4 g
  APTT: 17.8 s
  Bas: 0%
  Eos: 0.8%
  Fbg: 228.6 mg/dL
  Hb: 13.9 g/dL
  Ht: 41.6%
  Lym: 80.4%
  MCH: 21.3 pg
  MCHC: 33.3%
  MCV: 63.9 fL
  Mono: 5.8%
  Neu: 12.4%
  PT: 11.4 s
  Plat: 123.9 x10_4/uL
  RBC: 651.4 x10_4/ul
  Ret: 6.4%
  WBC: 123 x10_2/uL
  KIDNEY_L: 1.1 g
  KIDNEY_R: 1.1 g
  KIDNEY_TOTAL: 2.3 g
  LIVER: 14.4 g
  A/G: 1.9
  ALP: 1104 IU/L
  ALT: 38.2 IU/L
  AST: 61 IU/L
  BUN: 17.6 mg/dL
  CRE: 0.5 mg/dL
  Ca: 10.8 mg/dL
  Cl: 103.4 meq/L
  DBIL: 0.038 mg/dL
  GLC: 196 mg/dL
  IP: 7.3 mg/dL
  K: 4.4 meq/L
  LDH: 112.6 IU/L
  Na: 140.6 meq/L
  PL: 148.4 mg/dL
  RALB: 3.8 g/dL
  TBIL: 0.3 mg/dL
  TC: 79 mg/dL
  TG: 66 mg/dL
  TP: 5.9 g/dL
  gamma-GTP: 2 IU/L
[…], time 7 day
  TERMINAL_BW: 273.1 g
  APTT: 17.9 s
  Bas: 0%
  Eos: 1.2%
  Fbg: 241 mg/dL
  Hb: 14.1 g/dL
  Ht: 41.6%
  Lym: 78.6%
  MCH: 21.1 pg
  MCHC: 33.9%
  MCV: 62.5 fL
  Mono: 7.2%
  Neu: 13%
  PT: 11.7 s
  Plat: 139.6 x10_4/uL
  RBC: 666.6 x10_4/ul
  Ret: 3.8%
  WBC: 95.7 x10_2/uL
  KIDNEY_L: 1.2 g
  KIDNEY_R: 1.2 g
  KIDNEY_TOTAL: 2.4 g
  LIVER: 15.6 g
  A/G: 1.7
  ALP: 1041.8 IU/L
  ALT: 35 IU/L
  AST: 65.2 IU/L
  BUN: 20.6 mg/dL
  CRE: 0.6 mg/dL
  Ca: 11 mg/dL
  Cl: 103 meq/L
  DBIL: 0.03 mg/dL
  GLC: 184 mg/dL
  IP: 7.8 mg/dL
  K: 4.5 meq/L
  LDH: 119.8 IU/L
  Na: 140.6 meq/L
  PL: 153.4 mg/dL
  RALB: 3.8 g/dL
  TBIL: 0.3 mg/dL
  TC: 78.8 mg/dL
  TG: 87.2 mg/dL
  TP: 6.1 g/dL
  gamma-GTP: 1.6 IU/L
[…], time 14 day
  TERMINAL_BW: 322 g
  APTT: 18.4 s
  Bas: 0%
  Eos: 0.8%
  Fbg: 229.4 mg/dL
  Hb: 14.3 g/dL
  Ht: 42.5%
  Lym: 85%
  MCH: 20.4 pg
  MCHC: 33.6%
  MCV: 60.7 fL
  Mono: 5.2%
  Neu: 9.2%
  PT: 11.8 s
  Plat: 122.8 x10_4/uL
  RBC: 700.6 x10_4/ul
  Ret: 2.5%
  WBC: 113.1 x10_2/uL
  KIDNEY_L: 1.2 g
  KIDNEY_R: 1.3 g
  KIDNEY_TOTAL: 2.5 g
  LIVER: 16.9 g
  A/G: 2
  ALP: 712.4 IU/L
  ALT: 34.2 IU/L
  AST: 61.6 IU/L
  BUN: 20.8 mg/dL
  CRE: 0.6 mg/dL
  Ca: 10.6 mg/dL
  Cl: 105.2 meq/L
  DBIL: 0.04 mg/dL
  GLC: 199 mg/dL
  IP: 6.9 mg/dL
  K: 4.4 meq/L
  LDH: 105 IU/L
  Na: 141 meq/L
  PL: 139.6 mg/dL
  RALB: 4 g/dL
  TBIL: 0.2 mg/dL
  TC: 73.8 mg/dL
  TG: 67.6 mg/dL
  TP: 6 g/dL
  gamma-GTP: 1.2 IU/L
[…], time 28 day
  TERMINAL_BW: 412 g
  APTT: 18.9 s
  Bas: 0%
  Eos: 1.4%
  Fbg: 225 mg/dL
  Hb: 15.2 g/dL
  Ht: 45.2%
  Lym: 81.8%
  MCH: 19.5 pg
  MCHC: 33.7%
  MCV: 58 fL
  Mono: 6%
  Neu: 11.2%
  PT: 11.8 s
  Plat: 114.5 x10_4/uL
  RBC: 778.6 x10_4/ul
  Ret: 3.4%
  WBC: 123.7 x10_2/uL
  KIDNEY_L: 1.4 g
  KIDNEY_R: 1.5 g
  KIDNEY_TOTAL: 2.9 g
  LIVER: 21.8 g
  A/G: 1.7
  ALP: 685.6 IU/L
  ALT: 37 IU/L
  AST: 59.2 IU/L
  BUN: 22 mg/dL
  CRE: 0.7 mg/dL
  Ca: 10.7 mg/dL
  Cl: 103.6 meq/L
  DBIL: 0.012 mg/dL
  GLC: 195.4 mg/dL
  IP: 6.4 mg/dL
  K: 4.4 meq/L
  LDH: 96.6 IU/L
  Na: 140.6 meq/L
  PL: 159.6 mg/dL
  RALB: 4.1 g/dL
  TBIL: 0.3 mg/dL
  TC: 86.4 mg/dL
  TG: 78.6 mg/dL
  TP: 6.5 g/dL
  gamma-GTP: 1.2 IU/L
